One series relates to guinea pig myocytes. As to conditions: read-out: Kd for [^3 H]dofetilide binding in guinea pig myocytes, mean+/-SD, n=3, Chadwick et al; cited from earlier work.
Series [1] concerns IKr in guinea pig myocytes. As to conditions: cited from earlier work.
The target in series [2] is T1, [^3 H]dofetilide binding site in HL-1 cells (IKr) (Mus musculus, UniProt O35219).
T1 sequence (O35219 1-1162): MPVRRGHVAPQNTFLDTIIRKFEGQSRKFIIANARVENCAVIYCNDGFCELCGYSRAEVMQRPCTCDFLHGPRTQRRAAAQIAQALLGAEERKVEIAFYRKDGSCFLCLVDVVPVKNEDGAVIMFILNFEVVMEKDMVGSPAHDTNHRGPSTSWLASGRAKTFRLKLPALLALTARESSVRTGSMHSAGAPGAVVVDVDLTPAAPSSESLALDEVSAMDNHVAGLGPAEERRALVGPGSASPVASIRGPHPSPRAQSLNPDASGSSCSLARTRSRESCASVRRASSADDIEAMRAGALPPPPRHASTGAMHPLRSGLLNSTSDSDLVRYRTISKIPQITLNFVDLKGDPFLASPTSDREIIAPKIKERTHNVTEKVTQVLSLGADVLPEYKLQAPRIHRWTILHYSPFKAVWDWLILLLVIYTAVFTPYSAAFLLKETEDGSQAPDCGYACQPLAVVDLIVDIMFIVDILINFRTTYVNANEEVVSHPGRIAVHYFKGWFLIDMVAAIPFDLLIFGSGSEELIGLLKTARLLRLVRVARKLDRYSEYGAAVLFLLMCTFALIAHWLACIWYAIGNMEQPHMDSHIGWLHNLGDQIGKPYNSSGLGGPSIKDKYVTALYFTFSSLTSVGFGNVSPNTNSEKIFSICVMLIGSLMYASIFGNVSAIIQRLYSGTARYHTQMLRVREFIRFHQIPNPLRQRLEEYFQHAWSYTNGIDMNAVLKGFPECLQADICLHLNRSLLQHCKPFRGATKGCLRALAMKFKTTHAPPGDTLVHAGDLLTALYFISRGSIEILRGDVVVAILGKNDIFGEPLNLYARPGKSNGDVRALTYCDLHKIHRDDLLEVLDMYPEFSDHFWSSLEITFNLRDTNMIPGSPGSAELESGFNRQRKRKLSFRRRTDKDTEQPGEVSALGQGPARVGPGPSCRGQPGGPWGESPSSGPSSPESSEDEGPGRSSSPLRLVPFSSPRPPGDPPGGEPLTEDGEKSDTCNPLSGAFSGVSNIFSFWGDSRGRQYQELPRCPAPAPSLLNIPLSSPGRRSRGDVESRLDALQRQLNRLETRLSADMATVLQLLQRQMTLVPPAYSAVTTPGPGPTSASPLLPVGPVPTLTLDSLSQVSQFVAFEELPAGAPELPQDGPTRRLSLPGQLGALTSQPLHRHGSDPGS
Put plainly: biochemical.
Description: HL-1 cells from passages 60 to 80 are dissociated from tissue culture flasks with a 5 min incubation with 0.1% trypsin (Clonetics, San Diego) followed by inactivation in a trypsin neutralizing solution (Clonetics, San Diego). The cells are suspended in a buffer containing (mM) KCl 40, KH2 PO4 20, MgCl2 5, KHCO3 0.5, glucose 10, potassium glutamate5 0, potassium asparate 20, EGTA 1 and HEPES (N-[2-Hydroxyethyl]piperazine-N'-[2-ethanesulfonic acid]) 10, adjusted to pH 7.4 with KOH and containing 0.1% bovine serum albumin (BSA). […] The cells are then filtered on GF/C Unifilter® 96 well filter plates (Packard, Meriden, Conn.) using a Packard Micromate496® harvester. Filter plates are presoaked with wash buffer (25 mM Tris-HCl, 130 mM NaCl, 5.5 mM KCl, 0.8 mM MgCl2 and 50 μM CaCl2 [pH 7.4]) containing 1.0% BSA and washed following harvesting at room temperature with four ×1 ml washes of the same buffer without BSA.

For series [3], the system named is [^3 H]dofetilide binding site in guinea pig myocytes. As to conditions: cited from earlier work.
In series [4] the test system is IKr in rabbit ventricular myocytes. As to conditions: Carmeliet 1992, read-out: IC50 reported for IKr in rabbit ventricular myocytes; cited from earlier work.
In another series the test system is HL-1 cells. As to the kind of experiment: Contractile activity (spontaneous beating) of HL-1 cells. Format: cell-based, mouse. The method, then: CONTRACTILE ACTIVITY OF HL-1 CELLS
HL-1 cells are found to respond to several pharmacological agents in a manner expected for cardiomyocytes. Confluent cultures of HL-1 cells at passage 33 in growth medium (without norepinephrine or retinoic acid) display spontaneous contractile activity (beating).
In other experiments, spontaneously beating confluent HL-1 cells in growth medium are stopped by adding propranolol. First, norepinephrine bitartrate is added to a final concentration of 10^-5 M. Under these stimulated conditions, propranolol is subsequently added.
To determine if the effect of 10^-4 M propranolol is reversible, the culture medium containing propranolol is removed and growth medium (without norepinephrine or retinoic acid) is added to the cell cultures.

Consider seven molecules from patent publication US6316207A, “Mouse cardiac muscle cell line, HL-1” (priority 1999, dated 2001).

Counter-ions that a name gives are not always drawn. Like-named read-outs stand apart in the source and are kept apart here. Where only a bound is given, the exact number is not on record here.

Turning to `[3H]c1cc(OCCN(C)CCc2ccc(NS(C)(=O)=O)cc2)ccc1NS(C)(=O)=O` [[^3 H]dofetilide], the Kd with guinea pig myocytes was 70 ± 6 nM.
The term IC50 denotes the concentration that inhibits the measured activity by half. Regarding `CN1CCN(CCCCN2C(=O)CN(/N=C/c3ccc(-c4ccc(Cl)cc4)o3)C2=O)CC1` [azimilide dihydrochloride], the IC50 in series [1] (Fermini et al 1995, read-out: IC50 for blocking the rapidly activating component of the delayed rectifier IKr) is 400 nM. The molecule further showed a Kd in series [2] of 800 nM.
In the case of `CCCCCCC[N+](CC)(CC)CCCCc1ccc(Cl)cc1` [clofilium], the Kd in series [3] (cardiac myocytes) was 1290 nM.
For the molecule `CN(CCOc1ccc(NS(C)(=O)=O)cc1)CCc1ccc(NS(C)(=O)=O)cc1` [dofetilide], the IC50 was 31 nM in series [1] (Jurkiewicz and Sanguinetti 1993, read-out: IC50 reported for IKr in guinea pig myocytes); 4 nM in series [4]. In addition, the Kd in series [3] (read-out: Kd, competition for [^3 H]dofetilide binding, Cardiac Myocytes, primary guinea pig myocytes, Chadwick et al, SEM and N in own columns) was 100 nM.
Regarding `NC[C@H](O)c1ccc(O)c(O)c1` [norepinephrine bitartrate], the “contractile activity (beating) of HL-1 cells” value in the series on HL-1 cells (final concentration 10^-5 M, passage 33, within two minutes, growth medium without norepinephrine or retinoic acid) is listed as “beating faster”.
Take `CC(C)NCC(O)COc1cccc2ccccc12` (centres unmarked) [propranolol]: in the series with HL-1 cells (final concentration 10^-4 M, after 10^-5 M norepinephrine bitartrate), the “time to arrest of all contractions” value is ≤ 10 min. Besides, the arrest of contractions entry with HL-1 cells (final concentration 10^-4 M, after stimulation with 10^-5 M norepinephrine bitartrate, within 10 minutes) is given as “arrests all contractions”. The “effect on contractile activity” value with HL-1 cells (final concentrations of 10^-7 M, 10^-6 M, and 10^-5 M, after 10^-5 M norepinephrine bitartrate) is “no observable effect”. The “time to recovery of contractile activity after removal of drug” value in the series with HL-1 cells (previously exposed to 10^-4 M (printed 10^31 4 M)) is ≤ 1 h. For the same molecule, the “reversibility: contractile activity after removal of drug” value in the series on HL-1 cells (previously exposed to 10^-4 M (printed 10^31 4 M), within 1 hour after medium change) is recorded as “contractile activity similiar to control HL-1 cell not exposed to propranolol”.
Turning to `COc1ccc(CCN(C)CCCC(C#N)(c2ccc(OC)c(OC)c2)C(C)C)cc1OC` (centres unmarked) [verapamil hydrochloride], in the series with HL-1 cells (final concentrations of 10^-7 M, 10^-6 M and 10^-5 M, growth medium without norepinephrine or retinoic acid), the “contractile activity after addition of drug” value is listed as “no observable contractile activity”.
